From the Kinase Knowledgebase extract (Sharma et al. 2016)
pIC50: −log10 of the molar value.

Molecular target: ROCK2 (human) (UniProt O75116)
Assay: Inhibition of ROCK2 Kinase Activity

ROCK2 (human), sequence (O75116 whole entry, looked up): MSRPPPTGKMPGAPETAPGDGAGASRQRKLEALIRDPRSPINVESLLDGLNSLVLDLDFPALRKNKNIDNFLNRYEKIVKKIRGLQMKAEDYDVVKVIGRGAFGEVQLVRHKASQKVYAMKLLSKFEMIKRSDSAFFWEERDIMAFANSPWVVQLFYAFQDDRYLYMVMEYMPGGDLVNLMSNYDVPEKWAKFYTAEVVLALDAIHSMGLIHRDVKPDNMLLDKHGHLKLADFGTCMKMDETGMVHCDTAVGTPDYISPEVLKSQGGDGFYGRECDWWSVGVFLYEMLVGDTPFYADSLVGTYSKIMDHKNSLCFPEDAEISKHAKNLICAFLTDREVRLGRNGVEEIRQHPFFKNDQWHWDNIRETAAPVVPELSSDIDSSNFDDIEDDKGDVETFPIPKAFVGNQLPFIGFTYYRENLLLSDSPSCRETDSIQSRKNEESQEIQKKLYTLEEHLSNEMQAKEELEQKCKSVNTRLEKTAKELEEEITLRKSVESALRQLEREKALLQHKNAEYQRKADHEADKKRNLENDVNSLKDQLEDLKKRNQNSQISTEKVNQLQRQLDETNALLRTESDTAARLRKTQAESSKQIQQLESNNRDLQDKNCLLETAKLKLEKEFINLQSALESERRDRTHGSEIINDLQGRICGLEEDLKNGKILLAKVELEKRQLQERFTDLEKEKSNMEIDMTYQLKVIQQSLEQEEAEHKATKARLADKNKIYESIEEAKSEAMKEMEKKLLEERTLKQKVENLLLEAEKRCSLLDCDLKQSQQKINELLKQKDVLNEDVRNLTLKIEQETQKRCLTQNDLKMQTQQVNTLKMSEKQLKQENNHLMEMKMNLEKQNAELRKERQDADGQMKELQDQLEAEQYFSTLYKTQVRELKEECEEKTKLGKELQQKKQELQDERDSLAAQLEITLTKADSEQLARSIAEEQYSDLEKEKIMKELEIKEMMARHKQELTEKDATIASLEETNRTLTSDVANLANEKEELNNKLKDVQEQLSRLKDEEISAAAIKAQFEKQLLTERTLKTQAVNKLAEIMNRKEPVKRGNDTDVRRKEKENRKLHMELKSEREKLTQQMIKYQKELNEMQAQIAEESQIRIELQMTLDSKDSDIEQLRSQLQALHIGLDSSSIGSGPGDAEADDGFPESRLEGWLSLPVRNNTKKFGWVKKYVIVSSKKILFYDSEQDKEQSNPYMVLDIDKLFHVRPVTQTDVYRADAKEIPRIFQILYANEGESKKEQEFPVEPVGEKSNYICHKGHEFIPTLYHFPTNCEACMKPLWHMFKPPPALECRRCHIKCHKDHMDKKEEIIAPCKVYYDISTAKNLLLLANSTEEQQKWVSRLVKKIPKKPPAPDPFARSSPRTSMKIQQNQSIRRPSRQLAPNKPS

Question: With `CC(C)(C)OC(=O)NC(Cc1ccc(O)cc1)C(=O)NCc1nc(-c2c[nH]c3ncccc23)n[nH]1` (configuration not stated) as the compound, how does the pIC50 read?
Answer: < 5.30

Question: With `COc1ccc(C(=O)NCc2nc(-c3ccncc3)n[nH]2)cc1O` as the compound, how does the pIC50 read?
Answer: < 5.30

Question: With `Cc1c(C(=O)NCc2nc(-c3c[nH]c4ncccc34)n[nH]2)cccc1[N+](=O)[O-]` as the compound, how does the pIC50 read?
Answer: < 5.30

Question: With `CC(=O)Oc1ccccc1C(=O)NCc1nc(-c2ccncc2)n[nH]1` as the compound, how does the pIC50 read?
Answer: ≥ 5.30

Question: `O=C(NCc1nc(-c2ccncc2)n[nH]1)c1cc2ccccc2cc1O` was tested. Which pIC50 did it give?
Answer: ≥ 5.30

Question: With `CC(C)CC(NC(=O)OC(C)(C)C)C(=O)NCc1nc(-c2c[nH]c3ncccc23)n[nH]1` (configuration not stated) as the compound, how does the pIC50 read?
Answer: < 5.30

Question: With `O=C(NCc1nc(-c2c[nH]c3ncccc23)n[nH]1)c1cnc[nH]1` as the compound, how does the pIC50 read?
Answer: < 5.30

Question: With `O=C(NCc1nc(-c2ccncc2)n[nH]1)c1csc2ccccc12` as the compound, how does the pIC50 read?
Answer: < 5.30

Question: How did the pIC50 turn out when `Cc1ccc(C(=O)NCc2nc(-c3c[nH]c4ncccc34)n[nH]2)cc1` was run?
Answer: < 5.30

Question: With `CC(C)C(NC(=O)OC(C)(C)C)C(=O)NCc1nc(-c2ccncc2)n[nH]1` (configuration not stated) as the compound, how does the pIC50 read?
Answer: < 5.30

Question: How did the pIC50 turn out when `O=C(NCc1nc(-c2ccncc2)n[nH]1)c1ccccc1C(=O)c1ccc(O)cc1` was run?
Answer: < 5.30

Question: `CCC(C(=O)NCc1nc(-c2c[nH]c3ncccc23)n[nH]1)c1ccccc1` (configuration not stated) was tested. Which pIC50 did it give?
Answer: < 5.30

Question: `O=C(NCc1nc(-c2ccncc2)n[nH]1)c1ccc2cccc(O)c2n1` was tested. Which pIC50 did it give?
Answer: < 5.30

Question: `CC(C(=O)NCc1nc(-c2c[nH]c3ncccc23)n[nH]1)c1ccc(-c2ccccc2)c(F)c1` (configuration not stated) was tested. Which pIC50 did it give?
Answer: < 5.30

Question: With `O=C(C=Cc1ccccc1)NCc1nc(-c2ccncc2)n[nH]1` as the compound, how does the pIC50 read?
Answer: < 5.30

Question: `O=C(NCc1nc(-c2ccncc2)n[nH]1)c1c(F)cccc1Cl` was tested. Which pIC50 did it give?
Answer: < 5.30

Question: How did the pIC50 turn out when `O=C(NCc1nc(-c2ccncc2)n[nH]1)c1ccc(O)cc1` was run?
Answer: ≥ 5.30

Question: With `O=C(NCc1nc(-c2ccncc2)n[nH]1)c1cc2ccccc2o1` as the compound, how does the pIC50 read?
Answer: < 5.30

Question: With `CC1=NN(c2ccc(C(=O)NCc3nc(-c4ccncc4)n[nH]3)cc2)C(=O)C1` as the compound, how does the pIC50 read?
Answer: < 5.30

Question: How did the pIC50 turn out when `O=C(NCc1nc(-c2c[nH]c3ncccc23)n[nH]1)c1ccc(Cl)c([N+](=O)[O-])c1` was run?
Answer: < 5.30

Question: How did the pIC50 turn out when `CN(C=O)c1ccc(C(=O)NCc2nc(-c3ccncc3)n[nH]2)cc1` was run?
Answer: < 5.30

Question: How did the pIC50 turn out when `O=C(NCc1nc(-c2c[nH]c3ncccc23)n[nH]1)c1ccc2c(c1)OCO2` was run?
Answer: < 5.30

Question: How did the pIC50 turn out when `Oc1ccc(C(O)CCc2nc(-c3ccncc3)n[nH]2)cc1` (configuration not stated) was run?
Answer: < 5.30

Question: `Cc1cccc(C(=O)NCc2cc(-c3ccncc3)n[nH]2)c1O` was tested. Which pIC50 did it give?
Answer: ≥ 5.30

Question: How did the pIC50 turn out when `Cc1cccc(C(=O)NCc2nc(-c3c[nH]c4ncccc34)n[nH]2)c1[N+](=O)[O-]` was run?
Answer: < 5.30

Question: `Cc1ccc(C(=O)NCc2nc(-c3c[nH]c4ncccc34)n[nH]2)cc1C` was tested. Which pIC50 did it give?
Answer: < 5.30

Question: With `COc1cccc(C(=O)NCc2nc(-c3c[nH]c4ncccc34)cs2)c1` as the compound, how does the pIC50 read?
Answer: ≥ 5.30

Question: `Cc1ccc(SCC(=O)NCc2nc(-c3c[nH]c4ncccc34)n[nH]2)cc1` was tested. Which pIC50 did it give?
Answer: < 5.30

Question: With `Cc1cccc(CCC(=O)NCc2nc(-c3ccncc3)n[nH]2)c1` as the compound, how does the pIC50 read?
Answer: < 5.30

Question: With `O=C(NCc1nc(-c2c[nH]c3ncccc23)n[nH]1)c1cccc(O)c1` as the compound, how does the pIC50 read?
Answer: < 5.30

Question: How did the pIC50 turn out when `CC(C)(C)OC(=O)N1CCNC(C(=O)NCc2nc(-c3c[nH]c4ncccc34)n[nH]2)C1` (configuration not stated) was run?
Answer: < 5.30

Question: `CC(C)(C)OC(=O)NC(Cc1ccccn1)C(=O)NCc1nc(-c2ccncc2)n[nH]1` (configuration not stated) was tested. Which pIC50 did it give?
Answer: < 5.30

Question: With `CC(C)(C)C(=O)Oc1ccc(C(=O)NCc2nc(-c3ccncc3)n[nH]2)cc1` as the compound, how does the pIC50 read?
Answer: < 5.30

Question: With `O=C(NCc1nc(-c2ccncc2)n[nH]1)c1cccc(F)c1F` as the compound, how does the pIC50 read?
Answer: < 5.30

Question: `CC(C)(C)OC(=O)NC(Cc1ccccn1)C(=O)NCc1nc(-c2c[nH]c3ncccc23)n[nH]1` (configuration not stated) was tested. Which pIC50 did it give?
Answer: < 5.30

Question: `CC1=NN(c2ccc(C(=O)NCc3nc(-c4c[nH]c5ncccc45)n[nH]3)cc2)C(=O)C1` was tested. Which pIC50 did it give?
Answer: < 5.30

Question: With `CC(=O)NCc1nc(-c2c[nH]c3ncccc23)n[nH]1` as the compound, how does the pIC50 read?
Answer: < 5.30

Question: `O=C(NCc1nc(-c2c[nH]c3ncccc23)n[nH]1)c1ccc(C(F)(F)F)cc1[N+](=O)[O-]` was tested. Which pIC50 did it give?
Answer: < 5.30

Question: `O=C(NCc1nc(-c2c[nH]c3ncccc23)n[nH]1)c1c(O)ccc2ccccc12` was tested. Which pIC50 did it give?
Answer: < 5.30

Question: How did the pIC50 turn out when `CC(C)Cc1ccc(C(C)C(=O)NCc2nc(-c3ccncc3)n[nH]2)cc1` (configuration not stated) was run?
Answer: < 5.30

Question: With `c1ccc2c(NCc3nc(-c4ccncc4)n[nH]3)ncnc2c1` as the compound, how does the pIC50 read?
Answer: < 5.30

Question: How did the pIC50 turn out when `O=C(Cc1ccccc1CO)NCc1nc(-c2c[nH]c3ncccc23)n[nH]1` was run?
Answer: < 5.30

Question: `CCC(C(=O)NCc1nc(-c2ccncc2)n[nH]1)c1ccncc1` (configuration not stated) was tested. Which pIC50 did it give?
Answer: < 5.30

Question: How did the pIC50 turn out when `O=Cc1ccccc1C(=O)NCc1nc(-c2c[nH]c3ncccc23)n[nH]1` was run?
Answer: < 5.30

Question: With `O=C(C=Cc1ccccc1C(F)(F)F)NCc1nc(-c2c[nH]c3ncccc23)n[nH]1` as the compound, how does the pIC50 read?
Answer: < 5.30

Question: With `CC(C)(C)OC(=O)N1CCCC1C(=O)NCc1nc(-c2c[nH]c3ncccc23)n[nH]1` (configuration not stated) as the compound, how does the pIC50 read?
Answer: < 5.30

Question: With `O=C(NCc1nc(-c2c[nH]c3ncccc23)n[nH]1)c1ccccc1` as the compound, how does the pIC50 read?
Answer: < 5.30

Question: With `CC(=O)NCC(=O)NCc1nc(-c2ccncc2)n[nH]1` as the compound, how does the pIC50 read?
Answer: < 5.30

Question: `CC(=O)NCC(=O)NCc1nc(-c2c[nH]c3ncccc23)n[nH]1` was tested. Which pIC50 did it give?
Answer: < 5.30

Question: `CC(NC(=O)c1ccc(O)cc1O)c1nc(-c2ccncc2)n[nH]1` (configuration not stated) was tested. Which pIC50 did it give?
Answer: ≥ 5.30

Question: With `CC(NC(=O)OC(C)(C)C)C(=O)NCc1nc(-c2ccncc2)n[nH]1` (configuration not stated) as the compound, how does the pIC50 read?
Answer: < 5.30

Question: With `CS(=O)(=O)Nc1cccc(C(=O)NCc2nc(-c3c[nH]c4ncccc34)cs2)c1` as the compound, how does the pIC50 read?
Answer: ≥ 5.30

Question: `O=C(Cc1ccc(C(F)(F)F)cc1)NCc1nc(-c2c[nH]c3ncccc23)n[nH]1` was tested. Which pIC50 did it give?
Answer: < 5.30

Question: How did the pIC50 turn out when `Cc1cc(C(=O)NCc2nc(-c3ccncc3)n[nH]2)ccc1O` was run?
Answer: ≥ 5.30

Question: `O=C(NCc1nc(-c2c[nH]c3ncccc23)n[nH]1)C(O)CCl` (configuration not stated) was tested. Which pIC50 did it give?
Answer: < 5.30

Question: `O=C(NCc1nc(-c2ccncc2)n[nH]1)C1CCc2ccccc2C1` (configuration not stated) was tested. Which pIC50 did it give?
Answer: < 5.30

Question: `O=C(NCc1nc(-c2c[nH]c3ncccc23)n[nH]1)C1=CCCC1` was tested. Which pIC50 did it give?
Answer: < 5.30

Question: With `CC(C)C(C(=O)NCc1nc(-c2c[nH]c3ncccc23)n[nH]1)N(C)C(=O)OC(C)(C)C` (configuration not stated) as the compound, how does the pIC50 read?
Answer: < 5.30

Question: With `NC(=O)c1cc(-c2ccncc2)n[nH]1` as the compound, how does the pIC50 read?
Answer: < 5.30

Question: `O=C(NCc1nc(-c2ccncc2)n[nH]1)c1cnc(O)c(Cl)c1` was tested. Which pIC50 did it give?
Answer: < 5.30

Question: `O=C(NCc1nc(-c2ccncc2)n[nH]1)c1cc2ccccc2s1` was tested. Which pIC50 did it give?
Answer: ≥ 5.30

Question: With `O=C(NCc1ncc(-c2ccncc2)s1)c1cccs1` as the compound, how does the pIC50 read?
Answer: < 5.30

Question: With `O=C(NCc1nc(-c2ccncc2)n[nH]1)c1cc(F)c(Cl)cc1F` as the compound, how does the pIC50 read?
Answer: < 5.30

Question: `Cc1ccc(C)c(C(=O)NCc2nc(-c3ccncc3)n[nH]2)c1` was tested. Which pIC50 did it give?
Answer: < 5.30

Question: How did the pIC50 turn out when `O=C(NCc1nc(-c2c[nH]c3ncccc23)n[nH]1)c1ccc(Cl)cc1[N+](=O)[O-]` was run?
Answer: < 5.30

Question: With `COc1cccc(C(=O)NCc2nc(-c3ccncc3)n[nH]2)c1` as the compound, how does the pIC50 read?
Answer: < 5.30

Question: How did the pIC50 turn out when `O=C(NCc1nc(-c2ccncc2)n[nH]1)c1ccc(F)cc1Cl` was run?
Answer: < 5.30

Question: How did the pIC50 turn out when `O=C(NCc1nc(-c2ccncc2)n[nH]1)c1cc(O)ccc1O` was run?
Answer: ≥ 5.30

Question: `COc1ccccc1CCC(=O)NCc1nc(-c2ccncc2)n[nH]1` was tested. Which pIC50 did it give?
Answer: < 5.30

Question: `O=C(NCc1nc(-c2ccncc2)n[nH]1)c1ccc(Br)cc1` was tested. Which pIC50 did it give?
Answer: < 5.30

Question: How did the pIC50 turn out when `Cc1c(C(=O)NCc2nc(-c3ccncc3)n[nH]2)oc2ccccc12` was run?
Answer: < 5.30

Question: With `CCCCCCCC(=O)NCc1nc(-c2c[nH]c3ncccc23)n[nH]1` as the compound, how does the pIC50 read?
Answer: < 5.30

Question: With `O=C(NCc1nc(-c2ccncc2)n[nH]1)c1cccc(F)c1` as the compound, how does the pIC50 read?
Answer: < 5.30

Question: `Cc1cc(C)c(C(=O)NCc2nc(-c3c[nH]c4ncccc34)n[nH]2)c(C)c1` was tested. Which pIC50 did it give?
Answer: < 5.30

Question: How did the pIC50 turn out when `COc1ccccc1CC(=O)NCc1nc(-c2c[nH]c3ncccc23)n[nH]1` was run?
Answer: < 5.30

Question: How did the pIC50 turn out when `CCc1ccc(C(=O)NCc2nc(-c3c[nH]c4ncccc34)n[nH]2)cc1` was run?
Answer: < 5.30

Question: With `O=C(NCc1nc(-c2c[nH]c3ncccc23)n[nH]1)c1cc(Cl)ccn1` as the compound, how does the pIC50 read?
Answer: < 5.30
